System: JAK1-dependent STAT6 phosphorylation downstream of IL-13 stimulation in TF-1 human erythroleukemia cells
Assay: cells
Conditions: TF-1, read-out: IL-13-pSTAT6 IC50

| IC50 [nM] | SMILES |
| --- | --- |
| 12.2 | CCOC(=O)N1CC=C(c2cccn3nc(Nc4ccc(C(=O)NCc5ccc(C)nc5)cc4)nc23)CC1 [Example 2-245, ethyl 4-[2-[4-[(6-methyl-3-pyridyl)methylcarbamoyl]anilino]-[1,2,4]triazolo[1,5-a]pyridin-8-yl]-3,6-dihydro-2H-pyridine-1-carboxylate] |
| 53.9 | O=C(CCC(F)(F)F)N1CC=C(c2cccn3nc(Nc4ccc(C(=O)N5CCC6(CCCN6)CC5)cc4)nc23)CC1 [Example 2-198, 1-[4-[2-[4-(1,8-diazaspiro[4.5]decane-8-carbonyl)anilino]-[1,2,4]triazolo[1,5-a]pyridin-8-yl]-3,6-dihydro-2H-pyridin-1-yl]-4,4,4-trifluoro-butan-1-one] |
| 23.4 | CN1CCN(C2CCN(C(=O)c3ccc(Nc4nc5c(C6=CCN(C(=O)CCC(F)(F)F)CC6)cccn5n4)cc3)CC2)CC1 [Example 2-393, 4,4,4-trifluoro-1-[4-[2-[4-[4-(4-methylpiperazin-1-yl)piperidine-1-carbonyl]anilino]-[1,2,4]triazolo[1,5-a]pyridin-8-yl]-3,6-dihydro-2H-pyridin-1-yl]butan-1-one] |
| 14.3 | CN1CCC(NC(=O)c2ccc(Nc3nc4c(C5=CCN(C(=O)CCC(F)(F)F)CC5)cccn4n3)cc2)CC1 [Example 2-335, N-(1-methyl-4-piperidyl)-4-[[8-[1-(4,4,4-trifluorobutanoyl)-3,6-dihydro-2H-pyridin-4-yl]-[1,2,4]triazolo[1,5-a]pyridin-2-yl]amino]benzamide] |
| 62.6 | CNC1CCN(C(=O)c2ccc(Nc3nc4c(C5=CCN(C(=O)CCC(F)(F)F)CC5)cccn4n3)cc2)C1 (centres unmarked) [Example 2-85, 4,4,4-trifluoro-1-[4-[2-[4-[3-(methylamino)pyrrolidine-1-carbonyl]anilino]-[1,2,4]triazolo[1,5-a]pyridin-8-yl]-3,6-dihydro-2H-pyridin-1-yl]butan-1-one] |
| 216 | O=C(NCCC1CCNCC1)c1ccc(Nc2nc3c(C4=CCN(C(=O)CCC(F)(F)F)CC4)cccn3n2)cc1 [Example 2-86, N-[2-(4-piperidyl)ethyl]-4-[[8-[1-(4,4,4-trifluorobutanoyl)-3,6-dihydro-2H-pyridin-4-yl]-[1,2,4]triazolo[1,5-a]pyridin-2-yl]amino]benzamide] |
| 411 | CCOC(=O)N1CC=C(c2cccn3nc(Nc4ccc(C(=O)NC5CCNCC5)cc4)nc23)CC1 [Example 2-360, ethyl 4-[2-[4-(4-piperidylcarbamoyl)anilino]-[1,2,4]triazolo[1,5-a]pyridin-8-yl]-3,6-dihydro-2H-pyridine-1-carboxylate] |
| 111 | O=C(c1ccc(Nc2nc3c(N4CCC(O)(c5ccc(Cl)cc5)CC4)cccn3n2)cc1)N1CC2(CCNC2)C1 [Example 1-224, [4-[[8-[4-(4-chlorophenyl)-4-hydroxy-1-piperidyl]-[1,2,4]triazolo[1,5-a]pyridin-2-yl]amino]phenyl]-(2,7-diazaspiro[3.4]octan-2-yl)methanone] |
| 5.8 | O=C(NCCc1cccnc1)c1ccc(Nc2nc3c(C4=CCN(C(=O)CCC(F)(F)F)CC4)cccn3n2)cc1 [Example 2-220, N-[2-(3-pyridyl)ethyl]-4-[[8-[1-(4,4,4-trifluorobutanoyl)-3,6-dihydro-2H-pyridin-4-yl]-[1,2,4]triazolo[1,5-a]pyridin-2-yl]amino]benzamide] |
| 191 | CN(C)C(=O)C1CN(C(=O)c2ccc(Nc3nc4c(C5=CCN(C(=O)CCC(F)(F)F)CC5)cccn4n3)cc2)CCN1C (centres unmarked) [Example 2-325, N,N,1-trimethyl-4-[4-[[8-[1-(4,4,4-trifluorobutanoyl)-3,6-dihydro-2H-pyridin-4-yl]-[1,2,4]triazolo[1,5-a]pyridin-2-yl]amino]benzoyl] piperazine-2-carboxamide] |
| 87.9 | O=C(N[C@H]1[C@@H]2CNC[C@@H]21)c1ccc(Nc2nc3c(C4=CCN(C(=O)CCC(F)(F)F)CC4)cccn3n2)cc1 [Example 2-454, N-[(1R,5S)-3-azabicyclo[3.1.0]hexan-6-yl]-4-[[8-[1-(4,4,4-trifluorobutanoyl)-3,6-dihydro-2H-pyridin-4-yl]-[1,2,4]triazolo[1,5-a]pyridin-2-yl]amino]benzamide] |

Source: patent publication US9873709B2 (priority 2013, dated 2018)
